For 21 compounds, IC50 results are on record in US8552004B2, “Chemical compounds” (AstraZeneca AB, priority 2010, dated 2013).

ATR, sequence (Q13535 whole entry): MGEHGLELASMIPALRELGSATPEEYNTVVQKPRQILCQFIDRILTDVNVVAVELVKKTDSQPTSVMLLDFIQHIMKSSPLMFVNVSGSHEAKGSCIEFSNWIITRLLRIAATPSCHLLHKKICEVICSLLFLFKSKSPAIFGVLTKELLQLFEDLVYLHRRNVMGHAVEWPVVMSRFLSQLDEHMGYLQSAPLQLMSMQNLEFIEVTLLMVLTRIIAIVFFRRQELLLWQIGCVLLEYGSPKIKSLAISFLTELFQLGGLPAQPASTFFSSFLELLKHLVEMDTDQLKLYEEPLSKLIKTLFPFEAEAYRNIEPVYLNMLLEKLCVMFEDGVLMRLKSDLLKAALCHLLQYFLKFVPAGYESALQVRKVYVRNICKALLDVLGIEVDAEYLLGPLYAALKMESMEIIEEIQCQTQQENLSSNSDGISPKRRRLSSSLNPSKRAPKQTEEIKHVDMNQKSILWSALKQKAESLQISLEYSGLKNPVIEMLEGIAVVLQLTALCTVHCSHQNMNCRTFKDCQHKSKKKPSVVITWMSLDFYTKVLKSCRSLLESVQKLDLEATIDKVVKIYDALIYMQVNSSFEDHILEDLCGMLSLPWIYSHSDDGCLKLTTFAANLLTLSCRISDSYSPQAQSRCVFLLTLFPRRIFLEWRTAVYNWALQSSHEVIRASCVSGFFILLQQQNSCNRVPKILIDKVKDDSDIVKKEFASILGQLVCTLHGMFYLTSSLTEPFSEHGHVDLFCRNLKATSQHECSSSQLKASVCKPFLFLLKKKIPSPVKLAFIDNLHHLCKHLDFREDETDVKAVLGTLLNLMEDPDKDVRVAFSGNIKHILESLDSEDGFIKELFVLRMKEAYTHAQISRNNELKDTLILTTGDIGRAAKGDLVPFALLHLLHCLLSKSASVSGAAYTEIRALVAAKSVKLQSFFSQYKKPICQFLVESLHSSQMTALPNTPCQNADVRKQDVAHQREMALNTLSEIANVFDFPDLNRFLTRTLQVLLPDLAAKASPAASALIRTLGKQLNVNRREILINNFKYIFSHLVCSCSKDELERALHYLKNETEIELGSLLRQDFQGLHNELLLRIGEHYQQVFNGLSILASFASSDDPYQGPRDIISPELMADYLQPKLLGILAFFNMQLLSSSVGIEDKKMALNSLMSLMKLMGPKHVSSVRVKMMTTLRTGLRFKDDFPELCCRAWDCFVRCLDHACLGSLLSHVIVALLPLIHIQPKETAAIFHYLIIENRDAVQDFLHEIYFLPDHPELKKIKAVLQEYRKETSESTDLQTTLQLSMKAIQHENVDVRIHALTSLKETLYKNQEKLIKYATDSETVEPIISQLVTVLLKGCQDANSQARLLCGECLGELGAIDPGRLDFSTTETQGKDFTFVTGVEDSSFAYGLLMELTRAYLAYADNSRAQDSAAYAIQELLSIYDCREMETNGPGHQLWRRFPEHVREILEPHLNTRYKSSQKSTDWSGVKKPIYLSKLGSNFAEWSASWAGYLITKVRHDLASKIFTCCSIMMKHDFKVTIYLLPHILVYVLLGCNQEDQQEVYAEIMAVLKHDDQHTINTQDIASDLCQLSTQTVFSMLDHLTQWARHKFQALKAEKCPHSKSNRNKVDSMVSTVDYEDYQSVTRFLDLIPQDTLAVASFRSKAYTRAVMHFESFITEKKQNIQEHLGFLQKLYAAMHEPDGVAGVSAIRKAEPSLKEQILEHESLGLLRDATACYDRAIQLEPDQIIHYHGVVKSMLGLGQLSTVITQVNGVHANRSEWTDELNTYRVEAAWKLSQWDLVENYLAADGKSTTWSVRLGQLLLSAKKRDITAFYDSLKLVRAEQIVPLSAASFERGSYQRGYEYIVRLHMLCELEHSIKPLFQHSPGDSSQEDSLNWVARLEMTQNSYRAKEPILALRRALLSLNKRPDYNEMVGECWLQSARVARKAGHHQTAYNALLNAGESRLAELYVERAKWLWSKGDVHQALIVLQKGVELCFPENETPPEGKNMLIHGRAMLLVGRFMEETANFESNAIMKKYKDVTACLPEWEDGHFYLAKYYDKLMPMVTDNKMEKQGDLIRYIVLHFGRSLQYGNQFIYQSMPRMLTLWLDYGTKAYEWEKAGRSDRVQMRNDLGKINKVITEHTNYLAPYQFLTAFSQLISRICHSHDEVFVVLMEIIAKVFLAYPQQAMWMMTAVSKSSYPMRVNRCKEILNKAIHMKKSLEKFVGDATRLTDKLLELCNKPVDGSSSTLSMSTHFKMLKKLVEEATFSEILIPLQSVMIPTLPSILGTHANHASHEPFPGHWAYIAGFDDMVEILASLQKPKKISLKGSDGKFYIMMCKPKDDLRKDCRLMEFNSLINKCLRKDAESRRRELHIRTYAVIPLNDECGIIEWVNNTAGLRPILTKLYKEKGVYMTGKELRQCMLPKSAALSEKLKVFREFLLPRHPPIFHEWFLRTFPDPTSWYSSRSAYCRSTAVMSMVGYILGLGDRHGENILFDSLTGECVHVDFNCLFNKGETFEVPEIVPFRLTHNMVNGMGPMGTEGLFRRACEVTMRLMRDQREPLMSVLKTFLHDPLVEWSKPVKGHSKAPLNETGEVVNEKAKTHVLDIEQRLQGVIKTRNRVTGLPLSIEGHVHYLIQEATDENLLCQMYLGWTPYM
ATR, sequence (Q8WXE1 whole entry partner): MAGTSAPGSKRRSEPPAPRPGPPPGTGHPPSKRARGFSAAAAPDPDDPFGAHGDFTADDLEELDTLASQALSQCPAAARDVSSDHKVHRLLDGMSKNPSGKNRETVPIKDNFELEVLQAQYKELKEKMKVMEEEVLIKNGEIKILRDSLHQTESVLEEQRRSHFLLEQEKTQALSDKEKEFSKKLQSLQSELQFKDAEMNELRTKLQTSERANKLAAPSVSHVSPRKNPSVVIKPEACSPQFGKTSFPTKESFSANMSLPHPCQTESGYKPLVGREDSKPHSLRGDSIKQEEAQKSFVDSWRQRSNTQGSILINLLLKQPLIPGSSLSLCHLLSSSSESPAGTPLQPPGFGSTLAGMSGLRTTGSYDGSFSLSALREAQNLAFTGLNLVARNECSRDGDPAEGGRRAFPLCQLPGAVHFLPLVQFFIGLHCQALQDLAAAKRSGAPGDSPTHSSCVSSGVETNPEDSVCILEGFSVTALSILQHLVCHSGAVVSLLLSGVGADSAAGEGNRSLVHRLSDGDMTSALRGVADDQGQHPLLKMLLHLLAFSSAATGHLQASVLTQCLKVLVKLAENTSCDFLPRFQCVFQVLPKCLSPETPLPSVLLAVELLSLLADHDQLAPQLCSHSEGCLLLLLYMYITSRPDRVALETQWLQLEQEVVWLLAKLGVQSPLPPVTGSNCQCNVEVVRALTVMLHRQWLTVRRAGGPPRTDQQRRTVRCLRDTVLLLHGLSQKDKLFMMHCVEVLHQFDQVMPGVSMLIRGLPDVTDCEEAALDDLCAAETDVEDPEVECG

The assay addresses ATR (Homo sapiens (Human), UniProt Q13535). Put plainly: Cellular Assay - ATR, phosphorylation of Chk1 (Ser 345) in HT29 cells after 4NQO (Test (b)). The assay is classed as cell-based. The following applies: cell assay Test (b); pChk1 Ser345 in HT29 cells, 3 μM 4NQO; arithmetic mean. The source says:
ATM and ATR have distinct and overlapping responses to DNA damage. They must participate together and responses must be co-ordinated. Both pathways may be activated by ionising radiation, however only ATR is activated by UV. Since UV treatment is not practical for use in a high throughput cell assay, the UV mimetic 4NQ0 (Sigma) was chosen to activate the ATR DNA damage response pathway.
Chk1, a downstream protein kinase of ATR, plays a key role in DNA damage checkpoint control. Activation of Chk1 involves phosphorylation of Ser317 and Ser345 (regarded as the preferential target for phosphorylation/activation by ATR). […] Compounds dose ranges were created by diluting in 100% DMSO and then further into assay media (EMEM, 10% FCS, 1% glutamine) using a Labcyte Echo Acoustic dispensing instrument. Cells were plated in 384 well Costar plates at 9×10^4 cells per ml in 40 μL EMEM, 10% FCS, 1% glutamine and grown for 24 hrs. Following addition of compound the cells were incubated for 60 minutes. A final concentration of 3 μM 4NQ0 (prepared in 100% DMSO) was then added using the Labcyte Echo and the cells incubated for a further 60mins. The cells are then fixed by adding 40 μL 3.7% v/v formaldehyde solution for 20 minutes. After removal of fix, cells were washed with PBS and permeabilised in 40 μL of PBS containing 0.1% Triton™ X-100. Cells are then washed and 15 μl primary antibody solution (pChk1 Ser345) added and the plates incubated at 4° C. overnight. […] The plates are washed and left in 40 μl PBS. Plates were then read on an ArrayS can Vti instrument to determine staining intensities, and dose responses were obtained and used to determine the IC50 values for the compounds.
What is called IC50 is the concentration at which inhibition is half-maximal. Low readings indicate higher potency, high ones lower potency. As for `C[C@@H]1COCCN1c1cc(C2([S@](C)(=N)=O)CC2)nc(-c2cccc3[nH]ccc23)n1` [Example 2.05, 4-{4-[(3R)-3-Methylmorpholin-4-yl]-6-[1-((R)—S-methylsulfonimidoyl)cyclopropyl]pyrimidin-2-yl}-1H-indole], half-maximal inhibition (IC50) required 75.8 nM.

`CNc1nc2cc(F)ccc2n1-c1nc(N2CCOC[C@H]2C)cc(C(C)(C)[S@@](C)(=N)=O)n1` [Example 5.05, 5-Fluoro-N-methyl-1-{4-[1-methyl-1-((S)—S-methylsulfonimidoyl)ethyl]-6-[(3R)-3-methylmorpholin-4-yl]pyrimidin-2-yl}-1H-benzimidazol-2-amine] came in with an IC50 of 18.3 nM.

For the compound `C[C@@H]1COCCN1c1cc(C2([S@@](C)(=N)=O)CC2)nc(-n2c(N)nc3ccccc32)n1` [Example 2.08, 1-{4-[(3R)-3-methylmorpholin-4-yl]-6-[1-((S)—S-methylsulfonimidoyl)cyclopropyl]pyrimidin-2-yl}-1H-benzimidazol-2-amine], the IC50 was 2.76 nM. Compared with the last compound, the IC50 is about 6.6-fold lower.

`CNc1nc2cc(F)ccc2n1-c1nc(N2CCOC[C@H]2C)cc(C2([S@@](C)(=N)=O)CC2)n1` [Example 5.09, 5-fluoro-N-methyl-1-{4-[(3R)-3-methylmorpholin-4-yl]-6-[1-((S)—S-methylsulfonimidoyl)cyclopropyl]pyrimidin-2-yl}-1H-benzimidazol-2-amine] came in with an IC50 of 18 nM.

On to `CNc1nc2c(F)cccc2n1-c1nc(N2CCOC[C@H]2C)cc(C(C)(C)[S@](C)(=N)=O)n1` [Example 5.02, 4-fluoro-N-methyl-1-{4-[1-methyl-1-((R)—S-methylsulfonimidoyl)ethyl]-6-[(3R)-3-methylmorpholin-4-yl]pyrimidin-2-yl}-1H-benzimidazol-2-amine], for which the IC50 stood at 70.8 nM.

`CNc1nc2c(F)cccc2n1-c1nc(N2CCOC[C@H]2C)cc(C2([S@](C)(=N)=O)CC2)n1` [Example 2.09, 4-Fluoro-N-methyl-1-{4-[(3R)-3-methylmorpholin-4-yl]-6-[1-((R)—S-methylsulfonimidoyl)cyclopropyl]pyrimidin-2-yl}-1H-benzimidazol-2-amine] displayed an IC50 of 159 nM.

As for `C[C@@H]1COCCN1c1cc(C2([S@@](C)(=N)=O)CCOCC2)nc(-c2cccc3[nH]ccc23)n1` [Example 4.03], half-maximal inhibition (IC50) was put at 51.1 nM. Compared with the last compound, the IC50 is about 3.1-fold lower.

`CNc1nc2c(F)cccc2n1-c1nc(N2CCOC[C@H]2C)cc(C2([S@@](C)(=N)=O)CC2)n1` [Example 2.10, 4-fluoro-N-methyl-{4-[(3R)-3-methylmorpholin-4-yl]-6-[1-((S)—S-methylsulfonimidoyl)cyclopropyl]pyrimidin-2-yl}-1H-benzimidazol-2-amine] came in with an IC50 of 109 nM.

As to `CNc1nc2ccccc2n1-c1nc(N2CCOC[C@H]2C)cc(C2([S@@](C)(=N)=O)CCOCC2)n1` [Example 4.01, N-Methyl-1-{4-[(3R)-3-methylmorpholin-4-yl]-6-[4-((S)—S-methylsulfonimidoyl)tetrahydro-2H-pyran-4-yl]pyrimidin-2-yl}-1H-benzimidazol-2-amine], the IC50 was found to be 53.6 nM.

Turning to `CNc1nc2ccccc2n1-c1nc(N2CCOC[C@H]2C)cc(C(C)(C)[S@](C)(=N)=O)n1` [Example 3.02, N-methyl-1-{4-[1-methyl-1-((R)—S-methylsulfonimidoyl)ethyl]-6-[(3R)-3-methylmorpholin-4-yl]pyrimidin-2-yl}-1H-benzimidazol-2-amine], the midpoint of inhibition, the IC50, lay at 8.43 nM. This IC50 is about 6.4-fold lower than that of the compound before.

In turn, `CNc1nc2ccc(F)cc2n1-c1nc(N2CCOC[C@H]2C)cc(C(C)(C)[S@@](C)(=N)=O)n1` [Example 5.06, 6-fluoro-N-methyl-1-{4-[1-methyl-1-((S)—S-methylsulfonimidoyl)ethyl]-6-[(3R)-3-methylmorpholin-4-yl]pyrimidin-2-yl}-1H-benzimidazol-2-amine] had an IC50 of 44.4 nM.

Take `CNc1nc2ccc(F)cc2n1-c1nc(N2CCOC[C@H]2C)cc(C2([S@](C)(=N)=O)CC2)n1` [Example 5.07, 6-Fluoro-N-methyl-1-{4-[(3R)-3-methylmorpholin-4-yl]-6-[1-((R)—S-methylsulfonimidoyl)cyclopropyl]pyrimidin-2-yl}-1H-benzimidazol-2-amine]: 29 nM corresponded to half-maximal inhibition (IC50).

Turning to `CNc1nc2ccc(F)cc2n1-c1nc(N2CCOC[C@H]2C)cc(C2([S@@](C)(=N)=O)CC2)n1` [Example 5.10, 6-fluoro-N-methyl-1-{4-[(3R)-3-methylmorpholin-4-yl]-6-[1-((S)—S-methylsulfonimidoyl)cyclopropyl]pyrimidin-2-yl}-1H-benzimidazol-2-amine], the IC50 turned out to be 47 nM. Compared with the last compound, the IC50 is about 1.6-fold higher.

The compound `C[C@@H]1COCCN1c1cc(C2([S@](C)(=N)=O)CC2)nc(-n2c(N)nc3ccccc32)n1` [Example 2.07, 1-{4-[(3R)-3-Methylmorpholin-4-yl]-6-[1-((R)—S-methylsulfonimidoyl)cyclopropyl]pyrimidin-2-yl}-1H-benzimidazol-2-amine] gave an IC50 of 2.58 nM.

`CNc1nc2ccccc2n1-c1nc(N2CCOC[C@H]2C)cc(C(C)(C)[S@@](C)(=N)=O)n1` [Example 3.01, N-methyl-1-{4-[1-methyl-1-((S)—S-methylsulfonimidoyl)ethyl]-6-[(3R)-3-methylmorpholin-4-yl]pyrimidin-2-yl}-1H-benzimidazol-2-amine] had an IC50 of 12.8 nM.

Compound `CNc1nc2ccccc2n1-c1nc(N2CCOC[C@H]2C)cc(C2([S@](C)(=N)=O)CCOCC2)n1` [Example 4.02, N-methyl-1-{4-[(3R)-3-methylmorpholin-4-yl]-6-[4-((R)—S-methylsulfonimidoyl)tetrahydro-2H-pyran-4-yl]pyrimidin-2-yl}-1H-benzimidazol-2-amine] showed an IC50 of 39.8 nM. This IC50 lies about 3.1-fold higher than the previous one.

As for `CNc1nc2cc(F)ccc2n1-c1nc(N2CCOC[C@H]2C)cc(C(C)(C)[S@](C)(=N)=O)n1` [Example 5.04, 5-Fluoro-N-methyl-1-{4-[1-methyl-1-((R)—S-methylsulfonimidoyl)ethyl]-6-[(3R)-3-methylmorpholin-4-yl]pyrimidin-2-yl}-1H-benzimidazol-2-amine], the IC50 came out at 16.2 nM. Compared with the last compound, the IC50 is about 2.5-fold lower.

`C[C@@H]1COCCN1c1cc(C2([S@@](C)(=N)=O)CC2)nc(-c2cccc3[nH]ccc23)n1` [Example 2.06, 4-{4-[(3R)-3-methylmorpholin-4-yl]-6-[1-((S)—S-methylsulfonimidoyl)cyclopropyl]pyrimidin-2-yl}-1H-indole] gave an IC50 of 12.9 nM.

Compound `CNc1nc2ccc(F)cc2n1-c1nc(N2CCOC[C@H]2C)cc(C(C)(C)[S@](C)(=N)=O)n1` [Example 5.03, 6-Fluoro-N-methyl-1-{4-[1-methyl-1-((R)—S-methylsulfonimidoyl)ethyl]-6-[(3R)-3-methylmorpholin-4-yl]pyrimidin-2-yl}-1H-benzimidazol-2-amine] returned an IC50 of 33.1 nM.

`CNc1nc2c(F)cccc2n1-c1nc(N2CCOC[C@H]2C)cc(C(C)(C)[S@@](C)(=N)=O)n1` [Example 5.01, 4-Fluoro-N-methyl-1-{4-[1-methyl-1-((S)—S-methylsulfonimidoyl)ethyl]-6-[(3R)-3-methylmorpholin-4-yl]pyrimidin-2-yl}-1H-benzimidazol-2-amine] showed an IC50 of 62.5 nM.

Compound `CNc1nc2cc(F)ccc2n1-c1nc(N2CCOC[C@H]2C)cc(C2([S@](C)(=N)=O)CC2)n1` [Example 5.08, 5-fluoro-N-methyl-1-{4-[(3R)-3-methylmorpholin-4-yl]-6-[1-((R)—S-methylsulfonimidoyl)cyclopropyl]pyrimidin-2-yl}-1H-benzimidazol-2-amine] displayed an IC50 of 10.1 nM.
